Reference: PMC6130680, “In vitro and in vivo antidiabetic potential of extracts and a furostanol saponin from Balanites aegyptiaca” (Pharmaceutical Biology, 2017)
Marks after values point to notes of the source that are not given here. Blank lines part the entries; values can stand above or below the compound they belong to.

Columns and labels:
[1] = target: α-Glucosidase enzyme from Brewer's yeast (EC 3.2.1.20); test: α-glucosidase (AG) inhibition assay; assay type: biochemical; settings: mean ± standard error; substrate p-NPG; a dash for a tested fraction or compound means no AG activity
Text: (§1) The positive control, acarbose, was purchased from Bayer Pharmaceuticals Pty, Ltd. (Wayne, NJ). Human recombinant aldose reductase and DL-glyceraldehyde were purchased from Wako Pure Chemical Industries, Ltd. (Osaka, Japan). Gliclazide was obtained from Servier Canada (Laval, QC, Canada). Pre-coated silica plates 60 GF254 (20 × 20 cm) (Fluka, Steinheim, Germany) were used for thin-layer chromatography (TLC). Silica gel H (Merck, Darmstadt, Germany) and Lichroprep RP-18 silica gel (15–25 μm, Merck, Darmstadt, Germany) were used for vacuum liquid chromatography (VLC). Silica gel 60 (70–230 mesh ASTM, Fluka, Steinheim, Germany), Diaion HP 20 (Sigma-Aldrich, St. Louis, MO), and Sephadex LH-20 (Sigma-Aldrich, Steinheim, Sweden) were used for column chromatography (CC). Spots were visualized by spraying with p-anisaldehyde/sulphuric acid.
(§2) AG and AR inhibitory activities of MeEx, ClFr, BuFr, AqFr, as well as the Diaion fractions D1–D6 were tested. AG inhibition was measured spectrophotometrically in a 96-well microplate reader using a procedure reported by Li et al. ([2009]). Acarbose was used as a positive control. The AR (EC 1.1.1.21) inhibitory activity was measured according to the procedure previously reported (Nishimura et al. [1991]). The experiments were repeated three times, and the IC50 values were calculated and expressed as mean ± standard error.

[2] = target: T1, Human recombinant aldose reductase (Homo sapiens, UniProt P15121); test: aldose reductase (AR) inhibition assay; assay type: biochemical; settings: mean ± standard error
T1 construct: purchased Wako Pure Chemical Industries, Ltd. (Osaka, Japan)
Text: as §1, §2

[3] = tested on: STZ-induced diabetic rats; test: in vivo antidiabetic activity in STZ-induced diabetic rats; design: species or system male albino rats (Wistar strain); settings: for Glucose level: fasting serum; for Glucose level / C-peptide / Cholesterol level / Insulin / Triglycerides: mean ± SEM, n = 6; for C-peptide / Cholesterol level / Insulin / Triglycerides: serum
Protocol: (§3) Male albino rats (Wistar strain, 150–200 g) and male mature albino mice of 20–25 g were obtained from the animal house colony of the National Research Center, Egypt. The experimental protocol followed the Institutional Animal Ethical Committee of the National Research Centre. The acute toxicity studies were performed on the mice. […] The animals survived and then four additional animals were tested sequentially so that a total of five animals were tested.
DM was induced by a single i.p. injection of STZ (55 mg/kg) in rats (Brosky and Logothetopoulos [1969]). Only rats with serum glucose levels of more than 250 mg/dL were selected and considered diabetic animals. MeEx, its active fraction (BuFr) and the active compound 3 were tested in the STZ-induced diabetic rats at two dose levels (100 and 200 mg/kg.b/wt) for 2 weeks. At the end of the 2-weeks treatment period, the animals were kept for an overnight fasting and the blood samples were collected from the retroorbital plexus and allowed to clot for 30 min at room temperature. These blood samples were centrifuged at 5000 rpm for 20 min and the serum was separated and stored at −80 °C until analysis was done. Serum samples were analyzed spectrophotometrically for serum glucose, triglycerides and cholesterol. Serum glucose was estimated by glucose oxidase–peroxidase method test agent kit (Stanbio, Boerne, TX) (Cheyne and Gilmore [1973]). Triglycerides were estimated by enzymatic methods by using a diagnostic kit (Biodiagnostic, Cairo, Egypt) (Fossati and Prencipe [1982]). Total cholesterol was estimated by enzymatic methods by using a diagnostic kit (Biodiagnostic, Cairo, Egypt) (Allain et al. [1974]). Serum insulin was estimated by a […] using the ALPCO Insulin (Rat) ELISA kit (Judzewitsch et al. [1982]). Serum C-peptide was measured with a rat insulin enzyme-linked immune absorbent assay kit (C-Peptide EIA Kit, Sigma-Aldrich, St. Louis, MO). Results were expressed as mean ± SEM for biochemical estimations. The quantitative data were analyzed by ANOVA followed by Tukey multiple comparison tests. The Kruskal–Wallis test was used for the quantitative analysis of the histopathology score values. Results were considered to be significant at p < 0.05.

male mature albino mice = test: acute toxicity study in mice; assay type: in vivo; settings: ascending oral doses up to 2000 mg/kg, observed closely for 24 h and daily for 14 days
Protocol: as §3
The acute toxicities of the three samples (MeEx, BuFr and compound 3) were studied where the mice took ascending oral doses up to 2000 mg/kg of each sample. They were observed closely for 24 h and daily for 14 days, where no mortality was observed.

[4] = 200 mg/kg for 2 weeks, versus diabetic control

AG inhibition IC50 [1]: 24.00 ± 2.31 µg/mL
Structure (SMILES): C[C@H]1O[C@H](O[C@H]2[C@H](O)[C@@H](O)[C@@H](O[C@H]3[C@H](O)[C@@H](O)C(O)O[C@@H]3CO)O[C@@H]2CO)[C@H](O)[C@@H](O)[C@@H]1N[C@H]1C=C(CO)[C@@H](O)[C@H](O)[C@H]1O (stereo partly shown) [Acarbose, acarbose, reference compound]

Structure (SMILES): CC[C@H](/C=C/C(C)C1CCC2C3CC=C4C[C@@H](O[C@@H]5O[C@H](CO)[C@@H](O)[C@H](O)[C@H]5O)CCC4(C)C3CCC12C)C(C)C (stereo partly drawn) [Compound 1, stigmasterol-3-O-β-D-glucopyranoside]
AR inhibition IC50 [2]: inactive
IC50 [2]: 49.7 µM

Structure (SMILES): CC(O)C1C(O)CC2C3CC=C4CC(OC5OC(CO)C(O)C(O)C5O)CCC4(C)C3CCC21C [Compound 2, pregn-5-ene-3β,16β,20(R)-triol 3-O-β-D-glucopyranoside]
AR inhibition IC50 [2]: inactive
IC50 [2]: 24.6 µM

Structure (SMILES): COC1(CC[C@@H](C)CO[C@@H]2O[C@H](CO)[C@@H](O)[C@H](O)[C@H]2O)OC2C[C@H]3[C@@H]4CC=C5C[C@@H](O[C@@H]6O[C@H](CO)[C@@H](O[C@@H]7O[C@H](CO)[C@@H](O)[C@H](O)[C@H]7O)[C@H](O)[C@H]6O[C@@H]6O[C@@H](C)[C@H](O)[C@@H](O)[C@H]6O)CC[C@]5(C)[C@H]4CC[C@]3(C)C2[C@@H]1C (stereo partly drawn) [Compound 3, 26-(O-β-D-glucopyranosyl)-22-O-methylfurost-5-ene-3β,26-diol-3-O-β-D-glucopyranosyl-(1 → 4)-[α-L-rhamnopyranosyl-(1 → 2)]-β-D-glucopyranoside]
AG inhibition IC50 [1]: 03.12 ± 0.17 µg/mL
IC50 [2]: 0.964 µM
Glucose level ([3]; 100 mg/kg for 2 weeks): 207.4 ± 18.33^a mg/dL
C-peptide ([3]; 100 mg/kg for 2 weeks): 1.42 ± 0.07^a ng/mL
Cholesterol level ([3]; 100 mg/kg for 2 weeks): 139.2 ± 10.30 mg/dL
Insulin ([3]; 100 mg/kg for 2 weeks): 1.99 ± 0.04^a μIU/mL
Triglycerides ([3]; 100 mg/kg for 2 weeks): 112.2 ± 9.89 mg/dL
Glucose level ([3]; 200 mg/kg for 2 weeks): 122.2 ± 18.22^b mg/dL
C-peptide ([3]; 200 mg/kg for 2 weeks): 2.04 ± 0.06^b ng/mL
Cholesterol level ([3]; 200 mg/kg for 2 weeks): 115.6 ± 7.12^b mg/dL
Insulin ([3]; 200 mg/kg for 2 weeks): 3.17 ± 0.28^b μIU/mL
Triglycerides ([3]; 200 mg/kg for 2 weeks): 113.5 ± 7.73 mg/dL
increase in C-peptide level [3, 4]: 65%
reduction in fasting blood/plasma glucose level [3, 4]: 51.39%
reduction in total cholesterol level [3, 4]: 31.19%
reduction in total cholesterol level ([3]; 200 mg/kg for 2 weeks, versus diabetic control, listed as furostanol saponin 3): 31.9%
mortality (acute toxicity) (male mature albino mice): no mortality

Structure (SMILES): Cc1ccc(S(=O)(=O)NC(=O)NN2CC3CCCC3C2)cc1 (stereo not shown) [Gliclazide, reference compound]
Glucose level ([3]; 10 mg/kg (standard drug)): 93.09 ± 5.80^b mg/dL
C-peptide ([3]; 10 mg/kg (standard drug)): 1.78 ± 0.11 ng/mL
Cholesterol level ([3]; 10 mg/kg (standard drug)): 125.3 ± 5.98^b mg/dL
Insulin ([3]; 10 mg/kg (standard drug)): 2.82 ± 0.18^a^,^b μIU/mL
Triglycerides ([3]; 10 mg/kg (standard drug)): 103.7 ± 9.73 mg/dL
reduction in cholesterol level ([3]; 10 mg/kg (standard drug), versus diabetic control): 25.42%
